Measured values from US8946216B2, “Indazole derivatives useful as ERK inhibitors” (Merck Sharp & Dohme Corp., priority 2010, dated 2015).

How the values were obtained:
[1] = target: ERK protein (Homo sapiens, UniProt P28482); assay: TdF (Temperature Dependence Fluorescence, thermal shift) assay for ERK; type: binding; settings: read-out: TdF Kd; 3 μM ERK protein, 15, 50 or 100 μM compound, Sypro Orange; Kd calculated from ΔTm; uncertainty estimated ±50%
From the text: Assays: TdF Assay for ERK
The SAR (Structure Activity Relationship) for ERK ligands covered by this invention was interrogated using the TdF (Temperature Dependence Fluorescence) assay or best known as thermal shift assay. The TdF assay was mainly conducted in the 96-well based CHROMO-4 real time fluorescence plate reader (BioRad). The Sypro Orange (Sigma-Aldrich), environmentally sensitive fluorescence dye, was used to monitor the protein folding-unfolding transition. Protein-ligand binding was gauged by the change (or shift) in the unfolding transition temperature (ΔTm) acquired at protein alone with respect to protein in the presence of ligand of interest.
Compound of interest was first prepared in DMSO stock (typical concentration: 10 mM). Sample of 20 μL was then added into the 96-well PCR plate, where it consisted of 3 μM. […] Final percentage of DMSO resided in the sample was 2%. The sample plate was heated from 30° C. to 90° C. with thermal ramping rate of 1 ° C./min. The fluorescence signals were acquired with excitation and emission wavelengths centered at 490 and 560 nm respectively. The instrument thermal stability was ±0.2° C. The melting temperatures (Tm) for ERK protein under aforementioned conditions occurred at 61.0±0.2° C. and 64.8±0.2° C. respectively.
Theoretical Basis for TdF-based Ligand Binding Affinity Constant
The derivation of TdF-based ligand binding affinity constant (Kd) followed closely those previously formulated by Brandts and Lin [2]. In brief, the binding constant of the ligand at the Tm is expressed as below: […]
where T0 is the midpoint of unfolding for unliganded protein and Tm is the midpoint of unfolding in presence of ligand. [LTm] is free ligand at Tm. The ΔHu and ΔCpu are the enthalpy of unfolding and heat capacity change of unfolding for the protein respectively. Following algorithm derived by Winsor and coworker, the T0, ΔHu and ΔCpu can be determined separately from nonlinear regression fitting the protein alone melting curve:
Where F(T) is the observed fluorescence intensity at any temperature T, Yn and Yu are the predicted fluorescence intensities for fully folded and unfolded protein, respectively; mn and mu are slope correction for changes in Yn and Yu with respect to changes in temperature (analogously replace T0 with Tm in the above equation for liganded protein to yield Tm).
where ΔHL(T) is the van't Hoff enthalpy of ligand binding at temperature T and ΔCpL is the heat capacity upon ligand binding. For simplicity, the ΔCpL and ΔHL(T) were set to zero and −7 kcal/mol respectively. The uncertainty in the calculated ligand binding affinity constant was estimated to be ±50%.

[2] = target: unphosphorylated Mouse ERK2 protein (inactive ERK2) (Mus musculus, UniProt P63085); assay: Coupled ERK2 (cERK) assay, coupled MEK1/ERK2 IMAP; type: biochemical; settings: 30 min preincubation with inactive ERK2, then activation by human MEK1; 30 μM ATP; fluorescence polarization; read-out: cERK2 IC50
From the text: • 1. M. W. Pantoliana, E. C. Petrella, J. D. Kwasnoski, V. S. Lobanov, J. Myslik, E. Graf, T. Carver, E. Asel, B. A. Springer, P. Lane, F. R. Salemme, High-density miniaturized thermal shift assays as a general strategy for drug discovery, J. Biomol. Screen 6 (2001) 429-440 • 2. J. F. Brandts, L.-N. Lin, Study of strong to ultratight protein interactions using differential scanning calorimetry, Biochemistry 29 (1990) 6927-6940 • 3. Mayhood, T. W., Windsor, W. T., Ligand binding affinity determined by temperature-dependent circular dichroism: Cyclin-dependent kinase 2 inhibitors, Analytical Biochemistry 345 (2005) 187-197 Coupled ERK2 (cERK) Assay:
14 μl of kinase buffer (10 mM Tris.HCl pH 7.2, 10 mM MgCl2, 0.01% Tween-20, 1 mM DTT) containing 0.4 ng unphosphorylated Mouse ERK2 protein was added to each well of a black 384-well assay plate. […] DMSO concentration during initial incubation is 6.7%. ERK2 activity was determined to be insensitive to DMSO concentrations up to 20%. ERK2 was then activated and it's kinase activity measured by the addition of 10 μl kinase buffer with the following components (final concentration per reaction): 2 ng active (phosphorylated) human MEK1 protein and 4 μM (total) ERK2 IMAP substrate peptides (3.9 μM unlabeled IPTTPITTTYFFFK-CONH2 and 100 nM IPTTPITTTYFFFK(5-carboxyfluorescein)-CONH2) and 30 μM ATP. DMSO concentration during ERK activation was 4%. After one hour, reactions were terminated by addition of 60 μl IMAP detections beads in binding buffer (Molecular Devices). Binding was allowed to equilibrate for 30 minutes before reading the plate on an LJL Analyst Fluorescence Polarization plate reader. […] Active compounds were reconfirmed in an independent assay.

[3] = target: fully phosphorylated, active Mouse ERK2 protein (Mus musculus, UniProt P63085); assay: Active ERK2 (aERK) assay, IMAP format; type: biochemical; settings: 30 min preincubation; 1 μM substrate peptide, 30 μM ATP; fluorescence polarization; read-out: aERK2 IC50
Experimental: Active ERK2 (aERK) Assay:
Activated ERK2 activity was also determined in the IMAP assay format using the procedure outlined above. 1 μl of 25× compound was added to 14 μl of kinase buffer containing 0.25 ng fully phosphorylated, active Mouse ERK2 protein. Following a 30 minute incubation, the reactions were initiated by addition of 10 μl of kinase buffer containing 1 μM ERK2 IMAP substrate peptide (0.9 μM unlabeled IPTTPITTTYFFFK--CONH2 and 100 nM IPTTPITTTYFFFK(5-carboxyfluorescein)-CONH2) and 30 μM ATP. Reactions proceeded for 30 minutes before termination by addition of 60 μl IMAP detection beads in binding buffer. Plates were read as above after 30 minute binding equilibration. Active compounds were reconfirmed in an independent assay.

fully phosphorylated, active Mouse ERK2 protein, sequence (P63085 whole entry): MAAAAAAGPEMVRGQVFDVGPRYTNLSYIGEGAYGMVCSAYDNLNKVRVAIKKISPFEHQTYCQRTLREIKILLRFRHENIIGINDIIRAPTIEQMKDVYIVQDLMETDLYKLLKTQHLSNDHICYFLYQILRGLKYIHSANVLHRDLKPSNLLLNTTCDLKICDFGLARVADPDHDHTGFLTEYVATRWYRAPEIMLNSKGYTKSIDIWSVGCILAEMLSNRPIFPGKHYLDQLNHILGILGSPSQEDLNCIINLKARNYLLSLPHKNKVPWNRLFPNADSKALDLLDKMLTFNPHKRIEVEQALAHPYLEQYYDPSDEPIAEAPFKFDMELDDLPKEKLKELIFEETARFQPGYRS
unphosphorylated Mouse ERK2 protein (inactive ERK2), sequence (P63085 whole entry): as above
ERK protein, sequence (P28482 2-360): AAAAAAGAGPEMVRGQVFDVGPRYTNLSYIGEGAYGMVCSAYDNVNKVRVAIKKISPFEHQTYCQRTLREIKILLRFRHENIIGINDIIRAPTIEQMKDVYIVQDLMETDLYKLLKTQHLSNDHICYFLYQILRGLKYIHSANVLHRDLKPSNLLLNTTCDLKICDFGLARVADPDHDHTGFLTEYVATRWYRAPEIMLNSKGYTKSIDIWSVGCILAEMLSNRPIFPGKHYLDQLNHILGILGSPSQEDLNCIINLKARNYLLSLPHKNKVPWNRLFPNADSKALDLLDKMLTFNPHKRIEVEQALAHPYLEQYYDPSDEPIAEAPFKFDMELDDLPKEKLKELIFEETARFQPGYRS

Row | Kd [1] [nM] | IC50 [2] [nM] | IC50 [3] [nM] | Structure (SMILES)
1 | 240 | 532 | 1000 | CC(C)Oc1ccc(-c2n[nH]c3ccc(NC(=O)C4CN(Cc5ccccc5)CCO4)cc23)cn1 (stereo not shown) [Compound 1, N-[3-[6-(1-METHYLETHOXY)-3-PYRIDINYL]-1H-INDAZOL-5-YL]-4-(PHENYLMETHYL)-2-MORPHOLINECARBOXAMIDE]
2 | 546 | 1840 | 583 | O=C(Nc1ccc2[nH]nc(-c3ccncc3)c2c1)C1CN(Cc2cscn2)CCO1 (stereo not shown) [Compound 2, N-[3-(4-PYRIDINYL)-1H-INDAZOL-5-YL]-4-(4-THIAZOLYLMETHYL)-2-MORPHOLINECARBOXAMIDE]
3 | 20 | 29.3 | 20.7 | O=C(Nc1ccc2[nH]nc(-c3ccncc3)c2c1)C1CN(Cc2ccccc2F)CCO1 (stereo not shown) [Compound 4, 4-[(2-FLUOROPHENYL)METHYL]-N-[3-(4-PYRIDINYL)-1H-INDAZOL-5-YL]-2-MORPHOLINECARBOXAMIDE]
4 | 20 | 42.4 | 54.2 | O=C(Nc1ccc2[nH]nc(-c3ccncc3)c2c1)C1CN(Cc2ccccc2Cl)CCS1 (stereo not shown) [Compound 9, 4-[(2-CHLOROPHENYL)METHYL]-N-[3-(4-PYRIDINYL)-1H-INDAZOL-5-YL]-2-THIOMORPHOLINECARBOXAMIDE]
5 | 15 | 36.4 | 77.2 | O=C(Nc1ccc2[nH]nc(-c3ccncc3)c2c1)C1CN(Cc2ccccc2F)CCS1 (stereo not shown) [Compound 10, 4-[(2-FLUOROPHENYL)METHYL]-N-[3-(4-PYRIDINYL)-1H-INDAZOL-5-YL]-2-THIOMORPHOLINECARBOXAMIDE]
6 | 616 | 840 | 475 | Cc1nc(CN2CCSC(C(=O)Nc3ccc4[nH]nc(-c5ccncc5)c4c3)C2)cs1 (stereo not shown) [Compound 11, 4-[(2-METHYL-4-THIAZOLYL)METHYL]-N-[3-(4-PYRIDINYL)-1H-INDAZOL-5-YL]-2-THIOMORPHOLINECARBOXAMIDE]
7 | 584 | 419 |  | O=C(Nc1ccc2[nH]nc(-c3ccncc3)c2c1)C1CN(Cc2ccc(Cl)cc2F)CCO1 (stereo not shown) [Compound 41, 4-[(4-CHLORO-2-FLUOROPHENYL)METHYL]-N-[3-(4-PYRIDINYL)-1H-INDAZOL-5-YL]-2-MORPHOLINECARBOXAMIDE]
8 | 1260 | 2660 |  | O=C(Nc1ccc2[nH]nc(-c3ccncc3)c2c1)C1CN(Cc2cc(C(F)(F)F)ccc2F)CCO1 (stereo not shown) [Compound 42, 4-[[2-FLUORO-5-(TRIFLUOROMETHYL)PHENYL]METHYL]-N-[3-(4-PYRIDINYL)-1H-INDAZOL-5-YL]-2-MORPHOLINECARBOXAMIDE]
9 | 910 | 1780 |  | O=C(Nc1ccc2[nH]nc(-c3ccncc3)c2c1)C1CN(Cc2ccc(F)c(Cl)c2)CCO1 (stereo not shown) [Compound 49, 4-[(3-CHLORO-4-FLUOROPHENYL)METHYL]-N-[3-(4-PYRIDINYL)-1H-INDAZOL-5-YL]-2-MORPHOLINECARBOXAMIDE]
10 | 727 | 400 |  | O=C(Nc1ccc2[nH]nc(-c3ccncc3)c2c1)C1CN(Cc2cc(F)ccc2F)CCO1 (stereo not shown) [Compound 51, 4-[(2,5-DIFLUOROPHENYL)METHYL]-N-[3-(4-PYRIDINYL)-1H-INDAZOL-5-YL]-2-MORPHOLINECARBOXAMIDE]
11 | 30 | 168 |  | O=C(Nc1ccc2[nH]nc(-c3ccncc3)c2c1)C1CNCCN1c1ccccc1 (stereo not shown) [Compound 54, 1-PHENYL-N-[3-(4-PYRIDINYL)-1H-INDAZOL-5-YL]-2-PIPERAZINECARBOXAMIDE]
12 | 34.5 |  | 287 | O=C(Nc1ccc2[nH]nc(-c3ccncc3)c2c1)[C@@H]1CCN(Cc2ccccc2)C1 [Compound 62, 1-(PHENYLMETHYL)-N-[3-(4-PYRIDINYL)-1H-INDAZOL-5-YL]-3(R)-PYRROLIDINECARBOXAMIDE]
13 |  |  | 1000 | O=C(Nc1ccc2[nH]nc(-c3ccncc3)c2c1)C1CN(CCCc2ccccc2)CCS1 (stereo not shown) [Compound 67, 4-(3-PHENYLPROPYL)-N-[3-(4-PYRIDINYL)-1H-INDAZOL-5-YL]-2-THIOMORPHOLINECARBOXAMIDE]
14 |  |  | 895 | O=C(Nc1ccc2[nH]nc(-c3ccncc3)c2c1)C1CN(CCc2ccccc2)CCS1 (stereo not shown) [Compound 68, 4-(2-PHENYLETHYL)-N-[3-(4-PYRIDINYL)-1H-INDAZOL-5-YL]-2-THIOMORPHOLINECARBOXAMIDE]
15 | 222 |  | 1000 | O=C(Nc1ccc2[nH]nc(-c3ccncc3)c2c1)C1CN(Cc2ccccc2)CCC12OCCO2 (stereo not shown) [Compound 72, 8-(PHENYLMETHYL)-N-[3-(4-PYRIDINYL)-1H-INDAZOL-5-YL]-1,4-DIOXA-8-AZASPIRO[4.5]DECANE-6-CARBOXAMIDE]
16 | 25.9 |  | 192 | CC(c1ccccc1)N1CCC[C@H](C(=O)Nc2ccc3[nH]nc(-c4ccncc4)c3c2)C1 (stereo partly drawn) [Compound 73, 1-(1-PHENYLETHYL)-N-[3-(4-PYRIDINYL)-1H-INDAZOL-5-YL]-3(S)-PIPERIDINECARBOXAMIDE]
17 | 250 | 350 |  | CNC(=O)c1n[nH]c2ccc(NC(=O)C3CN(Cc4ccccc4F)CCS3)cc12 (stereo not shown) [Compound 75, 5-[[[4-[(2-FLUOROPHENYL)METHYL]-2-THIOMORPHOLINYL]CARBONYL]AMINO]-N-METHYL-1H-INDAZOLE-3-CARBOXAMIDE]
18 | 920 | 873 |  | CCCCNC(=O)c1n[nH]c2ccc(NC(=O)C3CN(Cc4ccccc4F)CCS3)cc12 (stereo not shown) [Compound 76, N-BUTYL-5-[[[4-[(2-FLUOROPHENYL)METHYL]-2-THIOMORPHOLINYL]CARBONYL]AMINO]-1H-INDAZOLE-3-CARBOXAMIDE]
19 | 1800 | 3100 |  | O=C(NCc1ccccc1)c1n[nH]c2ccc(NC(=O)C3CN(Cc4ccccc4F)CCS3)cc12 (stereo not shown) [Compound 77, 5-[[[4-[(2-FLUOROPHENYL)METHYL]-2-THIOMORPHOLINYL]CARBONYL]AMINO]-N-(PHENYLMETHYL)-1H-INDAZOLE-3-CARBOXAMIDE]
20 |  |  | 1.9 | CN1CC(Cc2ccccc2)CC(C(=O)Nc2ccc3[nH]nc(-c4ccncc4)c3c2)C1 (stereo not shown) [Compound 78, 1-METHYL-5-(PHENYLMETHYL)-N-[3-(4-PYRIDINYL)-1H-INDAZOL-5-YL]-3-PIPERIDINECARBOXAMIDE]

Row | Structure (SMILES) | Kd [1] [nM] | IC50 [2] [nM] | IC50 [3] [nM]
21 | O=C(Nc1ccc2[nH]nc(-c3ccncc3)c2c1)C1CN(Cc2ccccn2)CCO1 (stereo not shown) [Compound 5, N-[3-(4-PYRIDINYL)-1H-INDAZOL-5-YL]-4-(2-PYRIDINYLMETHYL)-2-MORPHOLINECARBOXAMIDE] | 647 | 2440 | 1070
